According to patent US10477865B2, “Fungicidal compounds and methods of their use” (Auckland UniServices Limited, priority 2009, dated 2019):

Key:
[1] = Radical scavenging ability; settings: compared with ascorbic acid; data not shown
[2] = FRAP (ferric reducing antioxidant power) assay; settings: compared with ascorbic acid; data not shown
[3] = system: S. sclerotiorum ICMP13844; test: Agar diffusion assay, inhibition of mycelial growth; format: cell-based, Sclerotinia sclerotiorum; settings: HPLC purified; YPD agar, 25° C., 5 days; data not shown
A. supraseptata SVB-F2 = test: as above; format: cell-based, Apiognomonia supraseptata; settings: HPLC purified; YPD agar, 25° C., 5 days; data not shown
Escherichia coli SVB-B11 = test: Agar diffusion assay, antimicrobial activity; format: cell-based; settings: data not shown
[4] = system: V. inaequalis ICMP4095-96; test: Inhibition of spore germination; format: cell-based, Venturia inaequalis
[5] = Phosphomolybdenum antioxidant assay; settings: compared with ascorbic acid; data not shown
[6] = Stability tests (absorbance at 428 nm in different testing solutions); format: physicochemical
Procedure: Stability was determined by re-suspending between 0.3 to 0.5 mg/mL of purified pigmented compound of Formula (IV) in different testing solutions according to Table 1, and measuring the absorbance at 428 nm every 24 hours for fifteen days. The test samples were kept in glass vials under constant incandescent light (except for the temperature stability test).

A. alternata ICMP1099-96 = test: Inhibition of spore germination; format: cell-based, Alternaria alternata
[7] = Stability tests (absorbance at 428 nm in different testing solutions); format: physicochemical; settings: after 10 days
B. cinera ICMP16621 [8] = test: Inhibition of spore germination; format: cell-based, Botrytis cinera
P. viticola ICMP5537 = test: Inhibition of spore germination; format: cell-based, Phomopsis viticola
[9] = system: M. graminicola ICMP12504-95; format: cell-based, Mycosphaerella graminicola
Candida utilis 02/D00981 = test: Agar diffusion assay, antimicrobial activity; format: cell-based; settings: data not shown
[10] = system: Staphylococcus epidermis SVB-B12; test: Agar diffusion assay, antimicrobial activity; format: cell-based; settings: data not shown
[11] = system: S. cepivorum ICMP10916-91; test: Inhibition of spore germination; format: cell-based, Sclerotium cepivorum
B. cinera ICMP16621 [12] = test: Agar diffusion assay, inhibition of mycelial growth; format: cell-based, Botrytis cinera; settings: HPLC purified; YPD agar, 25° C., 5 days; data not shown
Candida albicans SC5614 = test: Agar diffusion assay, antimicrobial activity; format: cell-based; settings: data not shown
[13] = system: Saccharomyces cerevisiae BM45; test: Agar diffusion assay, antimicrobial activity; format: cell-based; settings: data not shown
[14] = system: S. sclerotiorum ICMP13844; test: Inhibition of spore germination; format: cell-based, Sclerotinia sclerotiorum
Solubility = format: physicochemical; settings: in water and polar organic solvents such as methanol, and ethanol
R. solani ICMP11620 = format: cell-based, Rhizoctonia solani
M. grisea ICMP14481 = format: cell-based, Magnaporthe grisea
[15] = system: Pseudomonas aeruginosa SVB-B10; format: cell-based; settings: agar diffusion; data not shown
[16] = all three concentrations tested: 2.7, 1.3 and 0.7 mg·mL-1
[17] = Stability to common acids: Acetic acid
[18] = Stability to common acids: Malic acid
[19] = Stability to common alkalis: NaHCO3 10% w/w
[20] = Stability to microwave radiation: 5 min, domestic microwave (1000 W)
[21] = Stability to presence of sugars: Sucrose 10% w/w
[22] = Stability to temperature: 4° C. in methanol
[23] = Stability to temperature: 4° C. in water
[24] = Stability to temperature: 60° C. in methanol
[25] = Stability to temperature: 60° C. in water
[26] = Stability to temperature: 100° C. in water
[27] = Stability to temperature: −20° C. in methanol
[28] = Stability to temperature: −20° C. in water

## CCC(C)CC(C)/C=C(/C=C(C)/C=C/C=C/C=C/C=C/C=C/C=C/C1=C(C(=O)O)C2OOC(CO)C(O)C(O1)C2O)C(=O)O (single isomer, unassigned) [Compound 1, Epicoccaene]
[1]
  Radical scavenging ability: comparable to those of ascorbic acid
[2]
  Antioxidant power by FRAP: comparable to those of ascorbic acid
[3]
  Activity against mycelial growth (zone of inhibition): strong activity
A. supraseptata SVB-F2
  Activity against mycelial growth (zone of inhibition): strong activity
Escherichia coli SVB-B11
  Antimicrobial activity: No antimicrobial activity
[4]; [16]
  Inhibition of spore germination: completely inhibit
[4]; spore germination
  minimal inhibition dose (MID): below 0.7 mg/mL
[5]
  Antioxidant power by phosphomolybdenum assay: comparable to those of ascorbic acid
[6]
  Resistance to temperature and microwave radiation: resistant
[6]; [17]
  Initial absorbance (428 nm): 1.61
[6]; Stability to common acids: Citric acid
  Initial absorbance (428 nm): 1.53
[6]; Stability to common acids: Citric acid, after 10 days
  Final absorbance (428 nm): 0.51
[6]; Stability to common acids: Lactic acid
  Initial absorbance (428 nm): 1.52
[6]; Stability to common acids: Lactic acid, after 10 days
  Final absorbance (428 nm): 0.68
[6]; [18]
  Initial absorbance (428 nm): 1.53
[6]; Stability to common alkalis: Na2CO3 10% w/w
  Initial absorbance (428 nm): 2.13
[6]; Stability to common alkalis: Na2CO3 10% w/w, after 10 days
  Final absorbance (428 nm): 2.12
[6]; [19]
  Initial absorbance (428 nm): 2.08
[6]; Stability to common alkalis: NaOH 10% w/w
  Initial absorbance (428 nm): 2.05
[6]; Stability to common alkalis: NaOH 10% w/w, after 10 days
  Final absorbance (428 nm): 2.04
[6]; Stability to light: In ethanol 5% v/v
  Initial absorbance (428 nm): 2.04
[6]; Stability to light: In ethanol 5% v/v, after 10 days
  Final absorbance (428 nm): 2.04
[6]; Stability to light: In methanol
  Initial absorbance (428 nm): 2.04
[6]; Stability to light: In methanol, after 10 days
  Final absorbance (428 nm): 2.04
[6]; Stability to light: In water
  Initial absorbance (428 nm): 2.05
[6]; Stability to light: In water, after 10 days
  Final absorbance (428 nm): 1.82
[6]; [20]
  Final absorbance (428 nm): 2.04
  Initial absorbance (428 nm): 2.05
[6]; Stability to presence of sugars: Dextrose 10% w/w
  Initial absorbance (428 nm): 2.08
[6]; Stability to presence of sugars: Dextrose 10% w/w, after 10 days
  Final absorbance (428 nm): 2.08
[6]; Stability to presence of sugars: Fructose 10% w/w
  Initial absorbance (428 nm): 2.02
[6]; Stability to presence of sugars: Fructose 10% w/w, after 10 days
  Final absorbance (428 nm): 2.03
[6]; [21]
  Initial absorbance (428 nm): 2.08
[6]; [22]
  Final absorbance (428 nm): 2.03
  Initial absorbance (428 nm): 2.05
[6]; [23]
  Final absorbance (428 nm): 2.06
  Initial absorbance (428 nm): 2.08
[6]; [24]
  Final absorbance (428 nm): 2.04
  Initial absorbance (428 nm): 2.05
[6]; [25]
  Final absorbance (428 nm): 2.06
  Initial absorbance (428 nm): 2.08
[6]; [26]
  Final absorbance (428 nm): 2.07
  Initial absorbance (428 nm): 2.08
[6]; [27]
  Final absorbance (428 nm): 2.06
  Initial absorbance (428 nm): 2.05
[6]; [28]
  Final absorbance (428 nm): 2.07
  Initial absorbance (428 nm): 2.08
[6]; acidic conditions, colour changes from bright yellow to pale orange
  Stability under acidic conditions: unstable
[6]; dissolved in water at neutral pH
  Light sensitivity: moderate light sensitivity
[6]; in water at pH 8.0 or higher, in methanol or in sugar solutions (10% w/w)
  Resistance to light: resistance to light increased
[6]; organic acids (10% w/w)
  Degradation in solution of organic acids: pronounced degradation
[6]; pH stability, pH 3, after 10 days, constant incandescent light
  Final absorbance (428 nm): 1.45
[6]; pH stability, pH 3, constant incandescent light
  Initial absorbance (428 nm): 1.46
[6]; pH stability, pH 5, after 10 days, constant incandescent light
  Final absorbance (428 nm): 1.67
[6]; pH stability, pH 5, constant incandescent light
  Initial absorbance (428 nm): 1.67
[6]; pH stability, pH 7, after 10 days, constant incandescent light
  Final absorbance (428 nm): 2.05
[6]; pH stability, pH 7, constant incandescent light
  Initial absorbance (428 nm): 2.05
[6]; pH stability, pH 8, after 10 days, constant incandescent light
  Final absorbance (428 nm): 2.08
[6]; pH stability, pH 8, constant incandescent light
  Initial absorbance (428 nm): 2.09
[6]; pH stability, pH 10, after 10 days, constant incandescent light
  Final absorbance (428 nm): 2.09
[6]; pH stability, pH 10, constant incandescent light
  Initial absorbance (428 nm): 2.09
A. alternata ICMP1099-96; [16]
  Inhibition of spore germination: completely inhibit
A. alternata ICMP1099-96; spore germination
  minimal inhibition dose (MID): below 0.7 mg/mL
[7]; [17]
  Final absorbance (428 nm): 0.66
[7]; [18]
  Final absorbance (428 nm): 0.38
[7]; [19]
  Final absorbance (428 nm): 2.08
[7]; [21]
  Final absorbance (428 nm): 2.07
B. cinera ICMP16621 [8]; [16]
  Inhibition of spore germination: completely inhibit
B. cinera ICMP16621 [8]; incubation in rich culture medium for 10 days, data not shown
  Inhibition of spore germination: completely inhibit
B. cinera ICMP16621 [8]; spore germination
  minimal inhibition dose (MID): below 0.7 mg/mL
P. viticola ICMP5537; [16]
  Inhibition of spore germination: completely inhibit
P. viticola ICMP5537; spore germination
  minimal inhibition dose (MID): below 0.7 mg/mL
[9]
  Inhibition of spore germination: resistant
Candida utilis 02/D00981
  Antimicrobial activity: No antimicrobial activity
[10]
  Antimicrobial activity: No antimicrobial activity
[11]; [16]
  Inhibition of spore germination: completely inhibit
[11]; spore germination
  minimal inhibition dose (MID): below 0.7 mg/mL
B. cinera ICMP16621 [12]
  Activity against mycelial growth (zone of inhibition): strong activity
Candida albicans SC5614
  Antimicrobial activity: No antimicrobial activity
[13]
  Antimicrobial activity: No antimicrobial activity
[14]; [16]
  Inhibition of spore germination: completely inhibit
[14]; spore germination
  minimal inhibition dose (MID): below 0.7 mg/mL
Solubility
  Solubility: readily soluble
R. solani ICMP11620
  minimal inhibition dose (MID): below 0.7 mg/mL
R. solani ICMP11620; [16]
  Inhibition of spore germination: completely inhibit
M. grisea ICMP14481; [16]
  Inhibition of spore germination: completely inhibit
M. grisea ICMP14481; spore germination
  minimal inhibition dose (MID): below 0.7 mg/mL
[15]
  Antimicrobial activity: No antimicrobial activity
